Like-named read-outs stand apart in the source and are kept apart here.
Assays:
[1] = system: Souris; assay: antireserpine activity: reserpine hypothermia; assay type: in vivo; conditions: réserpine 5 mg/kg i.p. 17 h before
Method: On note ensuite les températures témoins (réserpine), puis les températures 1, 2, 3 et 4 heures après l'administration des produits étudiés.
Les animaux sont répartis en lots de 4 animaux et reçoivent par voie intrapéritonéale la réserpine à une dose de 5 mg/kg. 17 heures après cette injection, on mesure la température corporelle de l'animal à l'aide d'une sonde thermocouple introduite dans le rectum; chaque lot reçoit ensuite la substance par voie intrapéritonéale. Le lot témoin reçoit la même quantité de solvant et par la même voie. La température corporelle est ensuite mesurée toutes les heures pendant 4 heures.
Les résultats sont rassemblés dans un tableau récapitulatif-où sont indiqués : • - la température moyenne pour chaque lot relevée 17 heures après l'injection de la réserpine, • - la moyenne des variations de température pour chaque lot relevées 1,2, 3 et 4 heures après l'injection de la substance étudiée, • - la somme des variations de températures pendant 4 heures, • - le pourcentage d'augmentation de la température pour chaque produit par rapport aux témoins.

[2] = acute toxicity in the mouse, intraperitoneal; assay type: in vivo, Souris; conditions: mouse, in vivo, ip, voie intrapéritonéale; for LD50 at 48 h: souris femelles, read-out: DL 50; for mortality at 48 h: read-out: Mortalité %
From the text: (§1) Les produits ont été administrés par voie intrapéritonéale à des souris femelles dont le poids variait de 18 à 30 g.
(§2) Les animaux injectés ont été maintenus dans une salle thermostatée, nourris et abreuvés à volonté.
(§3) La mortalité a été relevée à 1 heure, 4 heures, 24 heures et 48 heures.

[3] = system: souris femelles; assay: acute toxicity in the mouse, intraperitoneal; assay type: in vivo; conditions: voie intrapéritonéale, dead mice of the group
From the text: as §1, §2, §3

[4] = system: Souris; assay: tetrabenazine ptosis; assay type: in vivo; conditions: product i.p. 100 mg/kg 30 min before tétrabénazine 32 mg/kg i.v.
Method: Ce test permet de révéler également une activité antidépressive avec l'avantage d'une lecture plus rapide qu'avec la réserpine.
Les souris sont réparties par lots de 5.
Le ptosis est noté avant l'injection de tétrabénazine, 30 minutes, 60 minutes, 90 minutes et 120 minutes après.
On a adopté la notation suivante : • - 0 : pour un oeil ouvert, • - 1 : pour un oeil fermé au quart, • - 2 : pour un oeil fermé à moitié, • - 3 : pour un oeil fermé aux trois-quarts, • - 4 : pour un oeil fermé complètement.
Le lot témoin comprend 20 souris.

[5] = ip, 4 h, product i.p. 150 mg/kg, read-out: % d'augmentation par rapport aux témoins

| SMILES | change in vivo at 150 mg/kg [1, 5] | variation de température T=1h ([1]; product i.p. 150 mg/kg) | variation de température T= 2h ([1]; product i.p. 150 mg/kg) | variation de température T=3h ([1]; product i.p. 150 mg/kg) | variation de température T=4h ([1]; product i.p. 150 mg/kg) | LD50 at 48 h [2] | mortality at 48 h ([2]; 50 mg/kg) | mortality at 48 h ([2]; 100 mg/kg) | mortality at 48 h ([2]; 250 mg/kg) | mortality at 48 h ([2]; 500 mg/kg) | Mortalité en 1 heure ([3]; 50 mg/kg) | Mortalité en 48 h. ([3]; 50 mg/kg) | Mortalité en 1 heure ([3]; 100 mg/kg) | Mortalité en 48 h. ([3]; 100 mg/kg) | Mortalité en 1 heure ([3]; 250 mg/kg) | Mortalité en 48 h. ([3]; 250 mg/kg) | Mortalité en 1 heure ([3]; 500 mg/kg) | Mortalité en 48 h. ([3]; 500 mg/kg) | also measured |
| --- | --- | --- | --- | --- | --- | --- | --- | --- | --- | --- | --- | --- | --- | --- | --- | --- | --- | --- | --- |
| CC(CN(C)C)CN1c2ccccc2-c2onc(-c3ccccc3)c2-c2ccccc21 (centres unmarked) [compound 19, (méthyl-2 diméthylamino-3 propyl)-8 phényl-,3 (dibenzo [b ,f]isoxazolo [3 ,4-d]) 8H azépine] | 110% | +3,4 | +0,7 | +0,7 | -0,6 | 175 mg/kg | 0% | 0% | 60% | 100% | 0 | 0 | 0 | 0 | 1 | 3 | 5 | 5 | inhibition in vivo at 100 mg/kg ([4]; ip, 2 h, ptosis, read-out: % de protection): 16%; Ptosis Total [4]: 25,3; Ptosis 30 minutes ([4]; score 0-4 per eye): 5; Ptosis 60 minutes ([4]; score 0-4 per eye): 6,3; Ptosis 90 minutes ([4]; score 0-4 per eye): 6,7; Ptosis 120 minutes ([4]; score 0-4 per eye): 7,3 |
| CC(CN(C)C)CN1c2ccccc2C2C(c3ccccc3)=NN(c3ccccc3)C2c2ccccc21 (centres unmarked) [compound 9, (méthyl-2 diméthylamino-3 propyl)-8 diphényl-1,3 tétrahydro-1,3a, 8, 12b (dibenzo [b, f]pyrazolo [3,4-d])azépine] | – | – | – | – | – | > 300 mg/kg | – | – | – | – | – | – | – | – | – | – | – | – | change in vivo at 50 mg/kg ([1]; ip, 4 h, product i.p. 50 mg/kg, read-out: % d'augmentation par rapport aux témoins): 60%; variation de température T= 2h ([1]; product i.p. 50 mg/kg): +0,8; variation de température T=3h ([1]; product i.p. 50 mg/kg): +0,6; variation de température T=4h ([1]; product i.p. 50 mg/kg): +0,1; mortality at 48 h ([2]; 150 mg/kg): 0%; mortality at 48 h ([2]; 300 mg/kg): 0%; Mortalité en 1 heure ([3]; 150 mg/kg): 0; Mortalité en 48 h. ([3]; 150 mg/kg): 0; Mortalité en 1 heure ([3]; 300 mg/kg): 0; Mortalité en 48 h. ([3]; 300 mg/kg): 0 |
| CN(C)CCCN1c2ccccc2-c2c(-c3ccccc3)nn(-c3ccccc3)c2-c2ccccc21 [compound 14, (γ-diméthylaminopropyl)-8-diphényl-1,3 dihydro-1,8 (dibenzo [b,f]pyrazolo [3,4-d])azépine] | 40% | +1,5 | +0,6 | +0,6 | +0,1 | 200 mg/kg | 0% | 0% | 80% | 100% | 0 | 0 | 0 | 0 | 2 | 4 | 3 | 5 | – |

From EP0063525A1, “Dibenzazepine tetracyclic derivatives, process for their preparation and pharmaceutical compositions containing them” (CENTRE NATIONAL DE LA RECHERCHE SCIENTIFIQUE (CNRS), priority 1981, dated 1982)
